# Counter-ions that a name gives are not always drawn.
# Key:
# [1] = molecular target: AD brain-derived tau seeds (Homo sapiens, UniProt P10636, C639S); assay: biochemical; type: biochemical; settings: for inhibition at 100 µM: read-out: percent inhibition (vehicle AUC 100% minus percent AUC of compound); for percent inhibition (vehicle AUC 100% minus percent AUC of compound): 100 µM
# tau = tau (Homo sapiens, UniProt P10636, C639S); assay: Transmission electron microscopy of Tau-SAA end products; type: biochemical; settings: SAA end products (total fraction) of 100 µM reactions
# Sequence of tau (P10636 1-352 isoform P10636-2 C233S): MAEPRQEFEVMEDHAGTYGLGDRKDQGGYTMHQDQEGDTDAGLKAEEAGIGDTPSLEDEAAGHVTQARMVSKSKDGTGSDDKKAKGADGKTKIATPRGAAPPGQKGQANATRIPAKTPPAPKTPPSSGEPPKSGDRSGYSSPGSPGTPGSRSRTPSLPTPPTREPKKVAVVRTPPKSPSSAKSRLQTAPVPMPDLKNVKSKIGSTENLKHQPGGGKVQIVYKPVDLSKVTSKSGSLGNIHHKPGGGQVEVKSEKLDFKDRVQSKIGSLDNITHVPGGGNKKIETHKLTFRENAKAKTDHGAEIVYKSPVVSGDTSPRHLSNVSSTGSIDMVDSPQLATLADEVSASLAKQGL
# [2] = Phase III; cited from earlier work
# tau oligomers = settings: mouse models; cited from earlier work
# tau peptides = settings: cited from earlier work
# [3] = patients receiving the drug; cited from earlier work
# 2N4R = settings: cited from earlier work
# hyperphosphorylated tau = settings: mouse, in vivo; cited from earlier work
# Sequence of AD brain-derived tau seeds (P10636 1-352 isoform P10636-2 C233S): as above
structure (smiles),measurement,setting,value
COc1cccc2c1C(=O)c1c(O)c3c(c(O)c1C2=O)C[C@@](O)(C(=O)CO)C[C@@H]3O[C@H]1C[C@H](N)[C@@H](O)[C@H](C)O1 [Epirubicin],IC50,[1],6.6 µM
same,inhibition at 100 µM,[1],> 99%
CC(=O)c1c(O)c(C)c(O)c2c1OC1=CC(=O)C(C(C)=O)C(=O)C12C (stereo not drawn) [usnic acid],inhibition at 100 µM,[1],21.5%
CCN(CC)CCNC(=O)c1c(C)[nH]c(/C=C2\C(=O)Nc3ccc(F)cc32)c1C [Sunitinib],inhibition at 100 µM,[1],98.6%
same,aggregates seen by TEM,tau,widespread amyloid-like aggregates
Cc1ccc(C(=O)c2cc(O)c(O)c([N+](=O)[O-])c2)cc1 [tolcapone],inhibition at 100 µM,[1],78%
O=C(c1cc(O)c(O)c(O)c1)c1ccc(O)c(O)c1O [Exifone],IC50,[1],11.2 µM
same,inhibition at 100 µM,[1],> 95%
O=S(=O)(O)c1cc(S(=O)(=O)O)c2c(/N=N/c3ccccc3)c(O)ccc2c1 [Orange-G],inhibition at 100 µM,[1],39%
O=c1c(O)c(-c2cc(O)c(O)c(O)c2)oc2cc(O)cc(O)c12 [myricetin],inhibition at 100 µM,[1],> 95%
C=CCc1ccc(O)c(-c2ccc(O)c(CC=C)c2)c1 [honokiol],inhibition at 100 µM,[1],94%
CNc1ccc2nc3ccc(N)cc3[s+]c2c1 [azure C],inhibition at 100 µM,[1],> 95%
CN(C)c1ccc2c(c1)Sc1cc(N(C)C)ccc1N2.CS(=O)(=O)O.CS(=O)(=O)O [LMTX],primary efficacy outcomes,[2],did not reach primary efficacy outcomes
O=c1cc(-c2ccccc2)oc2cc(O)c(O)c(O)c12 [baicalein],inhibition at 100 µM,[1],> 95%
Oc1cc(O)c2c(c1)O[C@H](c1ccc(O)c(O)c1)[C@@H](O)C2 [(+)-catechin],percent inhibition (vehicle AUC 100% minus percent AUC of compound),[1],89%
COc1ccc2c(c1)c(CC(=O)O)c(C)n2C(=O)c1ccc(Cl)cc1 [Indomethacin],aggregates seen by TEM,tau,widespread amyloid-like aggregates
CN(C)c1ccc2nc3ccc(=[N+](C)C)cc-3sc2c1 [Methylene Blue],inhibition at 100 µM,[1],> 99%
"CN(C)c1ccc2nc3ccc(N)cc3[s+]c2c1.[Cl-] [Azure A, azure A]",maximum thioflavin fluorescence (ThT Max),[1],approaching the baseline
same,percent inhibition (vehicle AUC 100% minus percent AUC of compound),[1],> 95%
CNc1ccc2nc3ccc(=[N+](C)C)cc-3sc2c1.[Cl-] [azure B],percent inhibition (vehicle AUC 100% minus percent AUC of compound),[1],> 95%
"Nc1c(/N=N/c2ccc(-c3ccc(/N=N/c4cc(S(=O)(=O)O)c5ccccc5c4N)cc3)cc2)cc(S(=O)(=O)O)c2ccccc12 [Congo Red, Congo red]",maximum thioflavin fluorescence (ThT Max),[1],approaching the baseline
same,inhibition at 100 µM,[1],> 95%
CCN(CC)CCCC(C)Nc1c2ccc(Cl)cc2nc2ccc(OC)cc12 (stereo not drawn) [quinacrine hydrochloride],maximum thioflavin fluorescence (ThT Max),[1],reduced ThT Max across all dilutions
same,time to threshold (TTT),[1],only delay TTT at higher dilutions
CO[C@H]1/C=C/O[C@@]2(C)Oc3c(C)c(O)c4c(O)c(c(/C=N/N5CCN(C)CC5)c(O)c4c3C2=O)NC(=O)/C(C)=C\C=C\[C@H](C)[C@H](O)[C@@H](C)[C@@H](O)[C@@H](C)[C@H](OC(C)=O)[C@@H]1C [Rifampin],aggregates seen by TEM,tau,devoid of fibrillar amyloid structures
same,spread of tau oligomers and cognitive function,tau oligomers,limit the spread of tau oligomers and improve cognitive function
O=C(/C=C/c1ccc(O)c(O)c1)O[C@H](Cc1ccc(O)c(O)c1)C(=O)O [rosmarinic acid],inhibition at 100 µM,[1],> 95%
CC[C@@]1(O)C(=O)OCc2c1cc1n(c2=O)Cc2cc3c(CN(C)C)c(O)ccc3nc2-1 [topotecan],inhibition at 100 µM,[1],92%
same,inhibition of fibrillization of tau peptides,tau peptides,only mildly inhibited
COc1cc(/C=C/C(=O)CC(=O)/C=C/c2ccc(O)c(OC)c2)ccc1O [curcumin],cognitive outcome,[3],"improvements in attention, long-term retrieval, and visual memory"
same,tau and Aβ burden by PET ligand binding,[3],decreased tau and Aβ burden
Brc1cccc(-c2cc(-c3ccc4c(c3)OCO4)[nH]n2)c1 [anle138b],inhibition at 100 µM,[1],-25.9%
same,inhibition of spontaneous 2N4R aggregate formation,2N4R,inhibits the in vitro formation of spontaneous 2N4R aggregates
same,hyperphosphorylated tau burden and survival,hyperphosphorylated tau,reduces hyperphosphorylated tau burden and prolongs survival
"Nc1ccc2nc3ccc(N)cc3[s+]c2c1 [Thionin, thionin]",maximum thioflavin fluorescence (ThT Max),[1],approaching the baseline
same,percent inhibition (vehicle AUC 100% minus percent AUC of compound),[1],over 99%

# Source: article PMC12482674 (Alzheimer's Research & Therapy, 2025)
